Test: UV-Vis absorption and fluorescence spectroscopy (spectral properties in aqueous media / PBS buffer)
Assay type: physicochemical
Parameters: Brightness: unit not given here
Conditions: aqueous media; for FWHMabs (nm): absorption band width; for λabs (nm): absorption maximum; for FWHem (nm): emission band width; for λem (nm): emission maximum; for ε (M^-1 cm-1): extinction coefficient from Beer's Law plots; for ϕ: relative quantum yield, TMR and SiTMR as reference
Experimental: UV-Vis and fluorescence spectra were collected on a SpectraMax M5 spectrometer with a Microplate reader (Molecular Devices, Sunnyvale, CA). All absorbance spectra were reference corrected. Extinction coefficient was calculated from Beer’s Law plots of absorbance versus concentration. Relative quantum yields are reported using TMR and SiTMR as reference.

SMILES	Brightness	Stokes Shift (nm)	FWHMabs (nm)	λabs (nm)	FWHem (nm)	λem (nm)	ε (M^-1 cm-1)	ϕ
Cc1cc(C(=O)NCc2ccc(COc3nc(N)nc4[nH]cnc34)cc2)ccc1-c1c2cc/c(=[N+](/C)CCCS(=O)(=O)[O-])cc-2oc2cc(N(C)C)ccc12 [OF550SNAP, (E)((9-(4-((4-(((2-amino-9H-purin-6-yl)oxy)methyl)benzyl)carbamoyl)-2-methylphenyl)-6-(dimethylamino)-3H-xanthenylidene)(methyl)ammonio)propane-1-sulfonate]	21	24	38	556	43	580	59,500 M^-1 cm-1	0.36
C#Cc1cccc(Nc2ncnc3ccc(NC(=O)CCNC(=O)c4ccc(C(=O)[O-])c(C5=C6C=CC(=[N+](C)C)C=C6[Si](C)(C)c6cc(N(C)C)ccc65)c4)cc23)c1 [SiRErl(T)]	5	22	42	656	53	678	34,800 M^-1 cm-1	0.13
Cc1cc(C(=O)NCCOCCOCCCCCCCl)ccc1-c1c2cc/c(=[N+](/C)CCCS(=O)(=O)[O-])cc-2oc2cc(N(C)C)ccc12 [OF550HALO, (E)((9-(4-((2-(2-((6-chlorohexyl)oxy)ethoxy)ethyl)carbamoyl)-2-methylphenyl)-6-(dimethylamino)-3H-xanthenylidene)(methyl)ammonio)propane-1-sulfonate]	53	25	34	556	42	581	97,200 M^-1 cm-1	0.55
Cc1cc(C(=O)NCCCn2cc(-c3cccc(Nc4ncnc5ccccc45)c3)nn2)ccc1-c1c2cc/c(=[N+](/C)CCCS(=O)(=O)[O-])cc-2oc2cc(N(C)C)ccc12 [OF550Erl(UnT), (E)((6-(dimethylamino)-9-(2-methyl-4-((3-(4-(3-(quinazolin-4-ylamino)phenyl)-1H-1,2,3-triazol-1-yl)propyl)carbamoyl)phenyl)-3H-xanthenylidene)(methyl)ammonio)propane-1-sulfonate]	35	25	35	560	44	585	50,200 M^-1 cm-1	0.69
C#Cc1cccc(Nc2ncnc3ccc(NC(=O)CCNC(=O)c4ccc(C5=C6C=C/C(=[N+](/C)CCCS(=O)(=O)[O-])C=C6[Si](C)(C)c6cc(N(C)C)ccc65)c(C)c4)cc23)c1 [OF650Erl(T)]	7	17	38	656	41	673	43,400 M^-1 cm-1	0.16
CN(C)c1ccc2c(-c3cc(C(=O)O)ccc3C(=O)[O-])c3ccc(=[N+](C)C)cc-3oc2c1 [TMRCOOH, 4-carboxy-2-(6-(dimethylamino)-3-(dimethyliminio)-3H-xanthen-9-yl)benzoate]	49	26	42	550	44	576	83,800 M^-1 cm-1	0.58
C#Cc1cccc(Nc2ncnc3ccc(NC(=O)CCNC(=O)c4ccc(-c5c6cc/c(=[N+](/C)CCCS(=O)(=O)[O-])cc-6oc6cc(N(C)C)ccc56)c(C)c4)cc23)c1 [OF550Erl(T), (E)((6-(dimethylamino)-9-(4-((3-((4-((3-ethynylphenyl)amino)quinazolin-6-yl)amino)oxopropyl)carbamoyl)-2-methylphenyl)-3H-xanthenylidene)(methyl)ammonio)propane-1-sulfonate]	7	17	80	566	47	583	24,500 M^-1 cm-1	0.28
CN(C)c1ccc2c(-c3ccccc3C(=O)[O-])c3ccc(=[N+](C)C)cc-3oc2c1 [TMR]	33	25	38	549	42	574	60,900 M^-1 cm-1	0.54
C#Cc1cccc(Nc2ncnc3ccc(NC(=O)CCNC(=O)c4ccc(C(=O)[O-])c(-c5c6ccc(=[N+](C)C)cc-6oc6cc(N(C)C)ccc56)c4)cc23)c1 [TMRErl(T)]	21	24	39	563	42	587	33,100 M^-1 cm-1	0.62
Cc1cc(C(=O)[O-])ccc1C1=C2C=C/C(=[N+](/C)CCCS(=O)(=O)O)C=C2[Si](C)(C)c2cc(N(C)C)ccc21 [OF650COOH, (E)-3-((10-(4-carboxy-2-methylphenyl)-7-(dimethylamino)-5,5-dimethyldibenzo[b,e]silin-3(5H)-ylidene)(methyl)ammonio)propane-1-sulfonate]	82	22	34	650	42	672	200,600 M^-1 cm-1	0.41
Cc1cc(C(=O)O)ccc1-c1c2cc/c(=[N+](/C)CCCS(=O)(=O)[O-])cc-2oc2cc(N(C)C)ccc12 [OF550COOH, (E)((9-(4-carboxy-2-methylphenyl)-6-(dimethylamino)-3H-xanthenylidene)(methyl)ammonio)propane-1-sulfonate]	78	24	33	554	42	578	112,600 M^-1 cm-1	0.69
